Values of other authors in patent US20210072238A1, “IMMOBILIZATION OF PROTEINS WITH CONTROLLED ORIENTATION AND LOAD” (Oregon State University, priority 2019, published 2021).

Conditions: ncAA incorporated in protein

Compound: Cc1nnc(-c2ccc(C[C@H](N)C(=O)O)cc2)nn1 [Tet2.0, (S)-2-amino-3-(4-(6-methyl-1,2,4,5-tetrazin-3-yl)phenyl) propanoic acid]
- second-order in proteo reaction rate with sTCO: ~72,000 M^−1 s^−1
